Results as given in patent publication US5488055A, “Substituted N-cycloalkylmethyl-1H-pyrazolo(3,4-b)quinolin-4 amines and compositions and methods of use thereof” (Sanofi Winthrop Inc., priority 1995, dated 1996).
Counter-ions that a name gives are not always drawn. Like-named read-outs stand apart in the source and are kept apart here.

System: cGMP-PDE V
Test: c-GMP-PDE V inhibitory activity
Format: biochemical, various animal species and man
Description: The cGMP-PDE and other PDE isozymes were isolated from cardiovascular tissues (heart and aorta) of various animal species and man by anion-exchange and affinity chromatography as described by Silver et al., Sec. Messeng. Phos. 13:13-25, 1991; PDE activity, in the presence and absence of test compounds was determined essentially as described by Thompson et al., Adv. Cyclic Nucleotide Res. 10:69-92. To determine the potency and selectivity of compounds as PDE inhibitors, compounds are screened for their effect on cyclic nucleotide hydrolysis at 10 μM. […] The IC50 values are calculated from concentration-response curves as described by Tallarida and Murray, Manual of Pharmacologic Calculations with Computer Programs, Procedure 8, Graded Dose-response, pp. 14-19, Springer-Verlag, New York, 1981.

[1] = separate experimental runs, first value
[2] = separate experimental runs, second value
[3] = separate experimental runs, third value

Question: With CCn1ncc2c(N[C@@H](C)C3CCCCC3)c3cc(OC)c(OC)cc3nc21 [42(c)] as the compound, how does the IC50 read?
Answer: 112 nM

Question: CCn1ncc2c(N[C@@H](C)C3CCCCC3)c3cc(-n4cc(C)cn4)ccc3nc21 [Example 50, 1-ethyl-6-(4-methyl-1-pyrazolyl)-N-[S(+)-1-(cyclohexyl)ethyl]-1H-pyrazolo[3,4-b]quinolin-4-amine] was tested. Which IC50 did it give?
Answer: 9.1 nM

Question: For CCn1ncc2c(N[C@H](C)C3CCCCC3)c3cc([N+](=O)[O-])ccc3nc21 [Example 35, 1-ethyl-6-nitro-N-[R (-)-1(cyclohexyl)ethyl]-1H-pyrazolo[3,4-b]quinolin-4amine], which IC50 [1] is on record?
Answer: 8.6 nM

Question: And the IC50 [2]?
Answer: 9.5 nM

Question: What about the IC50 [3] of the same compound?
Answer: 9.5 nM

Question: What does the source list for CCn1ncc2c(N[C@@H](C)C3CCCCC3)c3cc(OC)ccc3nc21 [Example 26, 1-ethyl-6-methoxy-N-[S(+)-1-(cyclohexyl)ethyl]-1H-pyrazolo[3,4-b]quinolin-4-amine]?
Answer: IC50 [1]: 2.6 nM; IC50 [2]: 5.2 nM

Question: C[C@H](Nc1c2ccccc2nc2c1cnn2Cc1ccccc1)C1CCCCC1 [Example 38, 1-benzyl-N-[S (+)-1(cyclohexyl)ethyl]-1H-pyrazolo[3,4-b]quinolin-4-amine] was tested. Which “Percent Inhibition cGMP-PDE V” value (0.01 μM) did it give?
Answer: 9%

Question: And the “Percent Inhibition cGMP-PDE V” value (0.1 μM)?
Answer: 22%

Question: And the “Percent Inhibition cGMP-PDE V” value (1 μM)?
Answer: 77%

Question: Which IC50 does the source give for CCn1ncc2c(NCC3CCCCC3)c3cc(OCCN4CCOCC4)ccc3nc21 [Example 33, 1-ethyl-6-[2-(4-morpholinyl)ethoxy]-N-(cyclohexylmethyl)-1H-pyrazolo[3,4-b]quinolin-4-amine] here?
Answer: 92 nM

Question: How did the IC50 turn out when CCn1ncc2c(NCC3CCCCC3)c3cc(C(=O)O)ccc3nc21 [Example 30, 1-ethyl-6-carboxy-N-(cyclohexylmethyl)-1H-pyrazolo[3,4-b]quinolin-4-amine] was run?
Answer: 30 nM

Question: How did the IC50 turn out when CCn1ncc2c(NC[C@@H]3CCC[C@H](O)C3)c3cc([N+](=O)[O-])ccc3nc21 (relative stereo) [Example 36(a), 1-ethyl-6-nitro-N-(3-hydroxycyclohexylmethyl)-1 H-pyrazolo[3,4-b]quinolin-4-amine] was run?
Answer: 10.1 nM

Question: CCn1ncc2c(N[C@@H](C)C3CCCCC3)c3cc(Br)ccc3nc21 [Example 46, 1-ethyl-6-bromo-N-[S(+)-1-(cyclohexyl)ethyl]-1H-pyrazolo[3,4-b]quinolin-4-amine] was tested. Which IC50 did it give?
Answer: 0.37 nM

Question: With c1ccc2c(NCC3CCCCC3)c3cnn(C4CCCC4)c3nc2c1 [11(e), 1-cyclopentyl-N-(cyclohexylmethyl)-1H-pyrazolo[3,4-b]quinolin-4-amine] as the compound, how does the IC50 read?
Answer: 150 nM

Question: How did the IC50 turn out when CCN(CC)S(=O)(=O)c1ccc2nc3c(cnn3C(C)C)c(NCC3CCCCC3)c2c1 [45(d), 1-isopropyl-6-(diethylaminosulfonyl)-N-(cyclohexylmethyl)-1H-pyrazolo[3,4-b]quinolin-4-amine] was run?
Answer: 44 nM

Question: CCn1ncc2c(NCC3CCCCC3)c3cc(NC(C)=O)ccc3nc21 [24(c), 1-ethyl-6-acetamido-N-(cyclohexylmethyl)-1H-pyrazolo[3,4-b]quinolin-4-amine] was tested. Which IC50 did it give?
Answer: 51 nM

Question: CCn1ncc2c(NCC3CCCCC3)c3cc(OCCN(C)C)ccc3nc21 [Example 12] was tested. Which IC50 did it give?
Answer: 240 nM

Question: For CCn1ncc2c(NCC3CCCCC3)c3ccc(OC)cc3nc21 [18(d), 1-ethyl-7-methoxy-N-(cyclohexylmethyl)-1H-pyrazolo[3,4-b]quinolin-4-amine], which IC50 is on record?
Answer: 147 nM

Question: How did the IC50 [1] turn out when CC[C@H](Nc1c2cc([N+](=O)[O-])ccc2nc2c1cnn2CC)C1CCCCC1 [Example 54, 1-ethyl-6-nitro-N-[S(+)-1-(cyclohexyl)propyl]-1H-pyrazolo[3,4-b]quinolin-4-amine] was run?
Answer: 5.9 nM

Question: And the IC50 [2]?
Answer: 8.8 nM

Question: How did the “Percent Inhibition cGMP-PDE V” value (0.1 μM) turn out when CCn1ncc2c(NCC3(O)CCCCC3)c3cc(OC)ccc3nc21 [Example 32, 1-ethyl-6-methoxy-N-[(1-hydroxycyclohexyl)methyl]-1H-pyrazolo[3,4-b]quinolin-4-amine] was run?
Answer: 43%

Question: And the “Percent Inhibition cGMP-PDE V” value (1 μM)?
Answer: 79%

Question: What about the “Percent Inhibition cGMP-PDE V” value (10 μM) of the same compound?
Answer: 96%

Question: How did the IC50 turn out when CCn1ncc2c(N[C@@H](C)C3CCCCC3)c3cc([S+](C)[O-])ccc3nc21 (single isomer, unassigned) [Example 48(d), 1-ethyl-6-(methylsulfinyl)-N-[S(+)-1-(cyclohexyl)ethyl]-1H-pyrazolo[3,4-b]quinolin-4-amine] was run?
Answer: 4.2 nM

Question: CCn1ncc2c(NCC3CCCCC3)c3cc([S+](C)[O-])ccc3nc21 (stereo not drawn) [Example 49, 1-ethyl-6-(methylsulfinyl)-N-(cyclohexylmethyl)-1H-pyrazolo[3,4-b]quinolin-4-amine] was tested. Which IC50 did it give?
Answer: 18 nM

Question: With CCn1nc(C)c2c(NCC3CCCCC3)c3ccccc3nc21 [2(c), 1-ethyl-3-methyl-N-(cyclohexylmethyl)-1H-pyrazolo[3,4-b]quinolin-4-amine hydrochloride] as the compound, how does the IC50 read?
Answer: 82 nM

Question: How did the IC50 turn out when CCn1ncc2c(N[C@@H](C)C3CCCCC3)c3cc([S+](C)[O-])ccc3nc21 (single isomer, unassigned) [48(e), 1-ethyl-6-(methylsulfinyl)-N-[S(+)-1-(cyclohexyl)ethyl]-1H-pyrazolo[3,4-b]quinolin-4-amine] was run?
Answer: 7.6 nM

Question: For CCn1ncc2c(N[C@@H](C)C3CCCCC3)c3cc(S(=O)(=O)C(F)(F)F)ccc3nc21 [53(c), 1-ethyl-6-(trifluoromethylsulfonyl)-N-[S (+)-1-(cyclohexyl)ethyl]-1H-pyrazolo[3,4-b]quinolin-4-amine], which IC50 is on record?
Answer: 5.4 nM

Question: For C=Cc1ccc2nc3c(cnn3CC)c(N[C@@H](C)C3CCCCC3)c2c1 [Example 55, 1-ethyl-6-(ethenyl)-N-[S(+)-1(cyclohexyl)ethyl]-1H-pyrazolo[3,4-b]quinolin-4-amine], which “Percent Inhibition cGMP-PDE V” value (0.001 μM) is on record?
Answer: 58%

Question: And the “Percent Inhibition cGMP-PDE V” value (0.01 μM)?
Answer: 91%

Question: What about the “Percent Inhibition cGMP-PDE V” value (0.1 μM) of the same compound?
Answer: 96%

Question: Which “Percent Inhibition cGMP-PDE V” value (0.1 μM) does the source give for CCn1ncc2c(NCC3CCCCC3)c3ccc(N)cc3nc21 [Example 25, 1-ethyl-7-amino-N-(cyclohexylmethyl)-1H-pyrazolo[3,4-b]quinolin-4-amine] here?
Answer: 7%

Question: And the “Percent Inhibition cGMP-PDE V” value (1 μM)?
Answer: 68%

Question: What about the “Percent Inhibition cGMP-PDE V” value (10 μM) of the same compound?
Answer: 95%

Question: Which IC50 does the source give for CCn1ncc2c(N[C@@H](C)C3CCCCC3)c3cc(-c4noc(C)n4)ccc3nc21 [47(c)] here?
Answer: 23 nM

Question: What does the source list for CCn1ncc2c(N[C@@H](C)C3CCCCC3)c3cc(-n4cccn4)ccc3nc21 [Example 52, 1-ethyl-6-(1-pyrazolyl)-N-[S(+)-1-(cyclohexyl)ethyl]-1H-pyrazolo[3,4-b]quinolin-4-amine]?
Answer: IC50 [1]: 0.2 nM; IC50 [2]: 0.27 nM

Question: For CCn1ncc2c(N[C@@H](C)C3CCCCC3)c3cc(-n4ccnc4)ccc3nc21 [Example 43, 1-ethyl-6-(1-imidazolyl)-N-[S(+)-1-(cyclohexyl)ethyl]-1H-pyrazolo[3,4-b]quinolin-4-amine], which IC50 is on record?
Answer: 27 nM

Question: c1ccc(Cn2ncc3c(NCC4CCCCC4)c4ccccc4nc32)cc1 [10(d), 1-phenylmethyl-N-(cyclohexylmethyl)-1H-pyrazolo[3,4-b]quinolin-4-amine] was tested. Which IC50 did it give?
Answer: 260 nM

Question: CCn1ncc2c(NCC3CCCCC3)c3ccc([N+](=O)[O-])cc3nc21 [16(c), 1-ethyl-7-nitro-N-(cyclohexylmethyl)-1H-pyrazolo[3,4-b]quinolin-4-amine] was tested. Which IC50 did it give?
Answer: 150 nM

Question: CCn1ncc2c(NCC3CC3)c3ccccc3nc21 [Example 4, 1-ethyl-N-(cyclopropylmethyl)-1H-pyrazolo[3,4-b]quinolin-4-amine] was tested. Which IC50 did it give?
Answer: 3000 nM

Question: With CCn1ncc2c(NCC3CCCCC3)c3cc(-c4ccncc4)ccc3nc21 [Example 31] as the compound, how does the IC50 read?
Answer: 32 nM

Question: How did the IC50 turn out when CCn1ncc2c(N[C@@H](C)C3CCCCC3)c3cc(C#N)ccc3nc21 [41(c), 1-ethyl-6-cyano-N-[S(+)-(1-cyclohexyl)ethyl]-1H-pyrazolo[3,4-b]quinolin-4-amine] was run?
Answer: 0.96 nM

Question: How did the IC50 turn out when CCn1ncc2c(N[C@@H](C)C3CCCCC3)c3ccccc3nc21 [Example 39, 1-ethyl-N-[S(+)-1-(cyclohexyl)ethyl]-1H-pyrazolo[3,4-b]quinolin-4-amine] was run?
Answer: 15 nM

Question: Which results are given for CCn1ncc2c(NCC3CCCCC3)c3cccc(Br)c3nc21 [44(d), 1-ethyl-8-bromo-N-(cyclohexylmethyl)-1H-pyrazolo[3,4-b]quinolin-4-amine]?
Answer: Percent Inhibition cGMP-PDE V (0.01 μM): 17%; Percent Inhibition cGMP-PDE V (0.1 μM): 20%; Percent Inhibition cGMP-PDE V (1 μM): 70%

Question: With CCn1ncc2c(NCC3CCC(=O)CC3)c3cc(OC)ccc3nc21 [28(b), 1-ethyl-6-methoxy-N-[4-oxocyclohexylmethyl]-1H-pyrazolo[3,4-b]quinolin-4-amine] as the compound, how does the “Percent Inhibition cGMP-PDE V” value (0.1 μM) read?
Answer: 0%

Question: And the “Percent Inhibition cGMP-PDE V” value (1 μM)?
Answer: 25%

Question: And the “Percent Inhibition cGMP-PDE V” value (10 μM)?
Answer: 79%

Question: CCn1ncc2c(NCC3CCC(C(=O)OC)CC3)c3ccccc3nc21 (stereo not drawn) [Example 3, 1-ethyl-N-[(4-methoxycarbonylcyclohexyl)methyl]-1H-pyrazolo[3,4-b]quinolin-4-amine] was tested. Which IC50 did it give?
Answer: 300 nM

Question: Which IC50 [1] does the source give for CCn1ncc2c(N[C@H](C)C3CCCCC3)c3cc(OC)ccc3nc21 [Example 27, 1-ethyl-6-methoxy-N-[R(-)-1-(cyclohexyl)ethyl]-1H-pyrazolo[3,4-b]quinolin-4-amine] here?
Answer: 340 nM

Question: What about the IC50 [2] of the same compound?
Answer: 210 nM

Question: What about the IC50 [3] of the same compound?
Answer: 266 nM

Question: With CCn1ncc2c(NCC3CCC(O)CC3)c3cc(OC)ccc3nc21 (stereo not drawn) [19(d), 1-ethyl-6-methoxy-N-(4-hydroxycyclohexylmethyl)-1H-pyrazolo[3,4-b]quinolin-4-amine] as the compound, how does the “Percent Inhibition cGMP-PDE V” value (0.1 μM) read?
Answer: 28%

Question: Which IC50 does the source give for CCn1ncc2c(N[C@@H](CO)C3CCCCC3)c3cc([N+](=O)[O-])ccc3nc21 [40(c), 1-ethyl-6-nitro-N-[R-(-)-1-(cyclohexyl)ethanol]-1H-pyrazolo[3,4-b]quinolin-4-amine] here?
Answer: 2.4 nM

Question: What does the source list for CCn1ncc2c(NCC3CCC(C(=O)OCSC)CC3)c3ccccc3nc21 (stereo not drawn) [Example 5, 1-ethyl-N-[[4-(methylthiomethoxycarbonyl)cyclohexyl]methyl]-1H-pyrazolo[3,4-b]quinolin-4-amine]?
Answer: Percent Inhibition cGMP-PDE V (0.1 μM): 4%; Percent Inhibition cGMP-PDE V (1 μM): 34%; Percent Inhibition cGMP-PDE V (10 μM): 81%
